Results: publication PMC7765401, “Antiproliferative and Antiangiogenic Properties of New VEGFR-2-targeting 2-thioxobenzo[g]quinazoline Derivatives (In Vitro)” (Molecules, 2020)
“And” between values parts separate entries of the source, which are not always exact repeats. Equal values may be shown once. Read-outs that look alike come from different tables or passages of the source.

Assays:
[1] = test system: HepG2 human cancer-cell line; assay: MTT antiproliferative assay, HepG2; assay type: cell-based
Description: (§1) Selected compounds were evaluated in vitro for their antiproliferative activities against HepG2 and MCF-7 human cancer-cell lines using MTT assays. Cell viabilities and IC50 values were obtained and compared with those of the control, doxorubicin (Table 1).
(§2) The antiproliferative activity of the test compounds against HepG2, and MCF-7 human cancer-cell lines were evaluated by MTT assay. The detailed methodology procedure was reported. […]

MCF-7 cells [2] = assay: Cell-cycle analysis by flow cytometry (PI), MCF-7; assay type: cell-based, human; details: MCF-7, 48 h at the IC50 of the compound
Description: (§3) To investigate whether the tested compounds could arrest HepG2 and MCF-7 mitotic cell division, cell distributions at cell-cycle phases were analyzed by flow cytometry following their treatment with the vehicle or the indicated compound at its IC50 concentration. Cells and samples were prepared as previously reported, and a PI (ab139418) Flow Cytometry Kit (Abcam, Cambridge, UK) was used in accordance with the manufacturer’s protocol. In brief, both HepG2 and MCF-7 cells were separate, plated into six-well plates at a density of 0.6 × 10^6 cells/well in DMEM growth medium supplemented with 10% FBS. Cells were incubated for 24 h at 37 °C and 5% CO2 prior to exposure to either the vehicle (DMSO) as the control or 13, 14, or 15, at their IC50 concentrations. […] All cells were incubated for 48 h, washed with cold PBS after being harvested to single-cell suspensions by trypsinization, and fixed with 70% ethanol. The fixed cells were rehydrated in PBS prior to being lysed in a prepared solution of PI, Triton X-100, and RNase. Finally, the cells were kept at 37 °C for 15 min and analyzed using a FACS Caliber flow cytometer (BD Biosciences and Co., Franklin Lakes, NJ, USA).

VEGFR-2 (KDR) = biological target: T1, VEGFR-2 (KDR) (Homo sapiens, UniProt P35968); assay: In vitro inhibition of VEGFR-2 (KDR) kinase assay kit; assay type: biochemical; details: for Fold Relative to Sorafenib: VEGFR-2 IC50 relative to sorafenib; for IC50: luminescence kinase kit, 0.0–10.0 μM range, read-out: IC50 nM, VEGFR-2 enzyme
T1 construct: purchased Cat. #40325
Description: At the indicated end of the experiment, the luminescence was measured by a Tecan spark microplate reader.

[3] = test system: MCF-7 human cancer-cell line; assay: MTT antiproliferative assay, MCF-7; assay type: cell-based
Description: as §1, §2

HepG2 cells [4] = assay: Apoptosis by annexin-V FITC/PI double staining, HepG2; assay type: cell-based, human; details: HepG2, 48 h at the IC50 of the compound
Description: (§4) Apoptosis was detected for both HepG2 and MCF-7cells using the same preparation and sample treatment conditions as those used for cell-cycle analysis. The manufacturer’s instructions for the annexin-V FITC apoptosis detection kit (K101, Biovision, Milpitas, CA, USA) were followed. In brief, treated cells were detached after 48 h by trypsinization, washed twice with cold PBS, and stained with 5 μL of annexin-V fluorescein isothiocyanate (annexin-V FITC) and 5 μL of PI in the binding buffer for 15 min at 37 °C. Finally, the processed cells were analyzed using a FACS Caliber flow cytometer (BD Biosciences and Co., Franklin Lakes, NJ, USA).

HepG2 cells [5] = assay: Cell-cycle analysis by flow cytometry (PI), HepG2; assay type: cell-based, human; details: HepG2, 48 h at the IC50 of the compound
Description: as §3

MCF-7 cells [6] = assay: Apoptosis by annexin-V FITC/PI double staining, MCF-7; assay type: cell-based, human; details: MCF-7, 48 h at the IC50 of the compound
Description: as §4

[7] = MTT, 48 h of exposure, read-out: IC50 (μM) ± SD HepG2
[8] = Table S5, read-out: pIC50(exp) HepG2 (converted)
[9] = MCF7, MTT, 48 h of exposure, read-out: IC50 (μM) ± SD MCF-7
[10] = MCF7, Table S5, read-out: pIC50 (exp) MCF7 (converted)

T1 sequence (P35968 20-1356): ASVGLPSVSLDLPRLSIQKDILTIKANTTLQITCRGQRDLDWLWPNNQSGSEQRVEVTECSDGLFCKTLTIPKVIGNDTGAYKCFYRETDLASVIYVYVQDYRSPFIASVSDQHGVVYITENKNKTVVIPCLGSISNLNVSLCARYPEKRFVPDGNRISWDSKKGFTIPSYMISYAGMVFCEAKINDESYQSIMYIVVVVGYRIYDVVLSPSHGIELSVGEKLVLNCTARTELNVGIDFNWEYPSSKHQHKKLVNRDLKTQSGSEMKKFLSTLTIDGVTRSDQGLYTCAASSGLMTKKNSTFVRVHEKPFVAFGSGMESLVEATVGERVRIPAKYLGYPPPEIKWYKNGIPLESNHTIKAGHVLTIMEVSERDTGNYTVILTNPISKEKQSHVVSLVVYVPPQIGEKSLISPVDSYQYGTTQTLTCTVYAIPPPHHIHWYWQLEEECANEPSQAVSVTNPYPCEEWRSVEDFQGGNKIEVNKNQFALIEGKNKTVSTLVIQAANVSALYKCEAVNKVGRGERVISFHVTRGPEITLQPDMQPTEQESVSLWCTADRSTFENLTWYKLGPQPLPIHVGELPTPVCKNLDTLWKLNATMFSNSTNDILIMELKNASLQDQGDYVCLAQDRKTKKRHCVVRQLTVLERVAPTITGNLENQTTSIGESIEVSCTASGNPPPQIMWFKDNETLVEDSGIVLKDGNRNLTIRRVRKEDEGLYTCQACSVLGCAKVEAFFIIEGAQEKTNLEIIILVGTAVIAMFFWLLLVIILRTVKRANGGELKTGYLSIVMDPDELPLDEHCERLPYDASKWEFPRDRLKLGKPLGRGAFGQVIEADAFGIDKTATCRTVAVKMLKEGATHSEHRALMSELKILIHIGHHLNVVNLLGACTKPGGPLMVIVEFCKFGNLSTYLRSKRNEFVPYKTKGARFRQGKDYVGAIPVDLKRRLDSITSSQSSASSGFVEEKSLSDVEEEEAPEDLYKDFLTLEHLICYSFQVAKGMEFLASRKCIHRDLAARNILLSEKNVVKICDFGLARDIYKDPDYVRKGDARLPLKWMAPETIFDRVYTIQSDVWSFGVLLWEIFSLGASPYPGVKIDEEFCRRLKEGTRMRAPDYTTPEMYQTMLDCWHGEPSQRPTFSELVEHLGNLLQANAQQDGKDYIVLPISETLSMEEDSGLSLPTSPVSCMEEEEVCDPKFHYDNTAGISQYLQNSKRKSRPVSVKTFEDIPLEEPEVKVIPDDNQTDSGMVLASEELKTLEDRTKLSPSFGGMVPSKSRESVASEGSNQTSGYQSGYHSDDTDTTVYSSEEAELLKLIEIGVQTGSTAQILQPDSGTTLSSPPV

SMILES | IC50 [1, 7] [µM] | IC50 [1, 8] [µM] | IC50 [3, 9] [µM] | IC50 [3, 10] [µM] | melting point [°C] | also measured
CCn1c(SCCCN2C(=O)c3ccccc3C2=O)nc2cc3ccccc3cc2c1=O [Compound 15, 2-(3-((3-Ethyl-4-oxo-3,4-dihydrobenzo[g]quinazolin-2-yl)thio)propyl)isoindoline-1,3-dione] | 26 ± 2.5 | 28 | 9.4 ± 0.7 | 9.4 |  | Cell Cycle Distribution %G0/G1 (MCF-7 cells [2]): 43.25%; Cell Cycle Distribution %G2/M (MCF-7 cells [2]): 28.0% and 28.03%; Cell Cycle Distribution %S (MCF-7 cells [2]): 28.72%; Fold Relative to Sorafenib (VEGFR-2 (KDR)): 1.4 fold; IC50 (VEGFR-2 (KDR)): 44.4 ± 2.6 nM; Apoptosis Early (HepG2 cells [4]): 3.44%; Apoptosis Late (HepG2 cells [4]): 14.4%; Apoptosis Total (HepG2 cells [4]): 17.84%; Necrosis (HepG2 cells [4]): 6.27%; Cell Cycle Distribution %G0/G1 (HepG2 cells [5]): 31.15%; Cell Cycle Distribution %G2/M (HepG2 cells [5]): 39.2% and 39.24%; Cell Cycle Distribution %S (HepG2 cells [5]): 29.61%; Apoptosis Early (MCF-7 cells [6]): 5.57%; Apoptosis Late (MCF-7 cells [6]): 19.73%; Apoptosis Total (MCF-7 cells [6]): 25.3%; Necrosis (MCF-7 cells [6]): 8.14%
CCSc1nc2cc3ccccc3cc2c(=O)n1CC [Compound 9, 3-Ethyl-2-(ethylthio)benzo[g]quinazolin-4(3H)-one] | 31.7 ± 3.1 | 31.7 | 10.2 ± 0.6 | 10.2 | 107 to 109 | 
COc1cccc(CSc2nc3cc4ccccc4cc3c(=O)n2C)c1 [Compound 8, 2-((3-Methoxybenzyl)thio)-3-methylbenzo[g]quinazolin-4(3H)-one] | 31.3 ± 3.1 | 31.3 | 10.9 ± 0.9 | 10.9 |  | 
CCn1c(SCc2cccc(C)c2)nc2cc3ccccc3cc2c1=O [Compound 12, 3-Ethyl-2-((3-methylbenzyl)thio)benzo[g]quinazolin-4(3H)-one] | 30.7 ± 3.1 | 30.7 | 11.2 ± 0.9 | 11.2 | 186 to 188 | 
Cn1c(NN)nc2cc3ccccc3cc2c1=O [Compound 16] | 28.9 ± 2.3 | 28.9 | 10.4 ± 1.1 | 10.4 |  | 
Cc1cccc(CSc2nc3cc4ccccc4cc3c(=O)n2C)c1 [Compound 5, 3-Methyl-2-((3-methylbenzyl)thio)benzo[g]quinazolin-4(3H)-one] | 31.3 ± 3.1 | 31.3 | 10.6 ± 0.7 | 10.6 | 155 to 157 | 
CCn1c(=S)[nH]c2cc3ccccc3cc2c1=O [Compound 2, 3-Ethyl-2-thioxo-2,3-dihydrobenzo[g]quinazolin-4(1H)-one] | 36.1 ± 3.6 | 36.1 | 10.5 ± 0.5 | 10.5 |  | 
CCn1c(SCc2ccccc2)nc2cc3ccccc3cc2c1=O [Compound 10, 2-(Benzylthio)-3-ethylbenzo[g]quinazolin-4(3H)-one] | 36.2 ± 3.5 | 36.2 | 8.8 ± 0.5 | 8.79 | 132 to 134 | Cell Cycle Distribution %G0/G1 (MCF-7 cells [2]): 39.28%; Cell Cycle Distribution %G2/M (MCF-7 cells [2]): 34.6% and 34.55%; Cell Cycle Distribution %S (MCF-7 cells [2]): 26.17%; Fold Relative to Sorafenib (VEGFR-2 (KDR)): 4.5 fold; IC50 (VEGFR-2 (KDR)): 134 ± 8.2 nM; Apoptosis Early (MCF-7 cells [6]): 4.64%; Apoptosis Late (MCF-7 cells [6]): 17.03%; Apoptosis Total (MCF-7 cells [6]): 21.67%; Necrosis (MCF-7 cells [6]): 9.61%
CCn1c(SCc2cccc(OC)c2)nc2cc3ccccc3cc2c1=O [Compound 13, 3-Ethyl-2-((3-methoxybenzyl)thio)benzo[g]quinazolin-4(3H)-one] | 27.5 ± 2.1 | 27.5 | 10.1 ± 1.1 | 10.1 |  | Cell Cycle Distribution %G2/M (MCF-7 cells [2]): 4.36%; Cell Cycle Distribution %S (MCF-7 cells [2]): 33.25%; Fold Relative to Sorafenib (VEGFR-2 (KDR)): 1.5 fold; IC50 (VEGFR-2 (KDR)): 46.6 ± 2.8 nM; Apoptosis Early (HepG2 cells [4]): 2.82%; Apoptosis Late (HepG2 cells [4]): 18.56%; Apoptosis Total (HepG2 cells [4]): 21.38%; Necrosis (HepG2 cells [4]): 5.74%; Cell Cycle Distribution %G0/G1 (HepG2 cells [5]): 38.22%; Cell Cycle Distribution %G2/M (HepG2 cells [5]): 6.52%; Cell Cycle Distribution %S (HepG2 cells [5]): 55.3% and 55.26%; Apoptosis Early (MCF-7 cells [6]): 7.28%; Apoptosis Late (MCF-7 cells [6]): 14.94%; Apoptosis Total (MCF-7 cells [6]): 22.22%; Necrosis (MCF-7 cells [6]): 15% and 15.31%

Continued by falling IC50 [1, 7], values first:

IC50 [1, 7] [µM] | IC50 [1, 8] [µM] | IC50 [3, 9] [µM] | IC50 [3, 10] [µM] | melting point [°C] | SMILES | also measured
40.4 ± 4.1 | 40.4 | 10.7 ± 1.1 | 10.7 |  | Cn1c(=S)[nH]c2cc3ccccc3cc2c1=O [Compound 1, 3-Methyl-2-thioxo-2,3-dihydrobenzo[g]quinazolin-4(1H)-one] | 
36 ± 3.1 | 36 | 9.8 ± 1.2 | 9.8 | 201 to 203 | Cn1c(SCc2ccc(C#N)cc2)nc2cc3ccccc3cc2c1=O [Compound 7, 4-(((3-Methyl-4-oxo-3,4-dihydrobenzo[g]quinazolin-2-yl)thio)methyl)benzonitrile] | 
34.8 ± 3.1 | 34.8 | 10.2 ± 1.1 | 10.2 | 150 to 152 | Cn1c(SCc2ccccc2)nc2cc3ccccc3cc2c1=O [Compound 4, 2-(Benzylthio)-3-methylbenzo[g]quinazolin-4(3H)-one] | 
34.2 ± 2.9 | 34.2 | 10.6 ± 1.1 | 10.6 | 140 to 142 | CCn1c(SCc2cccc(C#N)c2)nc2cc3ccccc3cc2c1=O [Compound 11, 3-(((3-Ethyl-4-oxo-3,4-dihydrobenzo[g]quinazolin-2-yl)thio)methyl)benzonitrile] | 
29.9 ± 2.5 | 29.9 | 10.1 ± 0.7 | 10.1 | 115 to 117 | CCSc1nc2cc3ccccc3cc2c(=O)n1C [Compound 3, 2-(Ethylthio)-3-methylbenzo[g]quinazolin-4(3H)-one] | 
29.8 ± 2.1 | 29.8 | 10.1 ± 0.7 | 10.1 |  | CCn1c(NN)nc2cc3ccccc3cc2c1=O [Compound 17] | 
28.8 ± 2.6 | 28.8 | 10.7 ± 1.1 | 10.7 | 190 to 192 | Cn1c(SCc2ccc(Cl)cc2)nc2cc3ccccc3cc2c1=O [Compound 6, 2-((4-Chlorobenzyl)thio)-3-methylbenzo[g]quinazolin-4(3H)-one] | 
28.5 ± 1.9 |  | 10.3 ± 0.8 |  |  | COc1cccc2c1C(=O)c1c(O)c3c(c(O)c1C2=O)C[C@@](O)(C(=O)CO)C[C@@H]3O[C@H]1C[C@H](N)[C@H](O)[C@H](C)O1 [Doxorubicin, reference compound] | 
27.7 ± 2.5 | 27.7 | 9.6 ± 0.5 | 9.6 | 190 to 192 | CCn1c(SCCN2CCCCC2)nc2cc3ccccc3cc2c1=O [Compound 14, 3-Ethyl-2-((2-(piperidin-1-yl)ethyl)thio)benzo[g]quinazolin-4(3H)-one] | Cell Cycle Distribution %G0/G1 (MCF-7 cells [2]): 66.24%; Cell Cycle Distribution %G2/M (MCF-7 cells [2]): 6.58%; Cell Cycle Distribution %S (MCF-7 cells [2]): 27.18%; Fold Relative to Sorafenib (VEGFR-2 (KDR)): 2.0 fold; IC50 (VEGFR-2 (KDR)): 63 ± 3.9 nM; Apoptosis Early (HepG2 cells [4]): 2.97%; Apoptosis Late (HepG2 cells [4]): 13.42%; Apoptosis Total (HepG2 cells [4]): 16.39%; Necrosis (HepG2 cells [4]): 6.33%; Cell Cycle Distribution %G0/G1 (HepG2 cells [5]): 38.66%; Cell Cycle Distribution %G2/M (HepG2 cells [5]): 9.03%; Cell Cycle Distribution %S (HepG2 cells [5]): 52.3% and 52.31%; Apoptosis Early (MCF-7 cells [6]): 5.08%; Apoptosis Late (MCF-7 cells [6]): 25.68%; Apoptosis Total (MCF-7 cells [6]): 30.76%; Necrosis (MCF-7 cells [6]): 11.75%
